Laboratory results as given in patent US20060223837A1 (priority 2005, published 2006).

Key:
human VR1 [1] = molecular target: T1, human VR1 (Homo sapiens, UniProt Q8NER1); assay: Human VR1 [3H]RTX binding assay; conditions: for h Binding % I (1 μM) / inhibition at 1 µM: inhibition of [3H]RTX binding at 1 μM; for inhibition at 1 µM: read-out: h Binding % I (1 μM); for Ki: [3H]RTX binding, HEK293 membranes
T1 construct: expressed in transfected cells; host or cells: HEK293
How it was run: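 Inhibition of [3H]resiniferatoxin binding measured on HEK293-hVR1 membranes over 60 min at 37 C, pH 7.4 HEPES buffer containing BSA. Pellet radioactivity counted; 200 nM cold RTX gave nonspecific binding. % inhibition computed and Ki derived from duplicate measurements.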

human VR1 [2] = molecular target: T1, human VR1; assay: Human VR1 functional assay (FLIPR intracellular Ca2+); type: cell-based; conditions: for h % I (5 μM) / inhibition at 5 µM / inhibition at 1 µM: inhibition of capsaicin response; for IC50: antagonism of capsaicin-induced Ca2+ increase, read-out: h IC50; for inhibition at 5 µM: read-out: h % I (5 μM); for Emax at 6 µM: read-out: % Response Relative to EC80 of Capsaicin (6 μM); for inhibition at 1 µM: read-out: h % I (1 μM)
How it was run: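 Read-out was Ca2+-dye fluorescence by FLIPR: compounds at varying concentrations were added to dye-loaded human VR1 HEK293 cells and monitored 5 min before capsaicin addition ([…], approx. EC80). Dose-response data, averaged over four wells, gave EC50 or IC50.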

T1 sequence (Q8NER1 whole entry): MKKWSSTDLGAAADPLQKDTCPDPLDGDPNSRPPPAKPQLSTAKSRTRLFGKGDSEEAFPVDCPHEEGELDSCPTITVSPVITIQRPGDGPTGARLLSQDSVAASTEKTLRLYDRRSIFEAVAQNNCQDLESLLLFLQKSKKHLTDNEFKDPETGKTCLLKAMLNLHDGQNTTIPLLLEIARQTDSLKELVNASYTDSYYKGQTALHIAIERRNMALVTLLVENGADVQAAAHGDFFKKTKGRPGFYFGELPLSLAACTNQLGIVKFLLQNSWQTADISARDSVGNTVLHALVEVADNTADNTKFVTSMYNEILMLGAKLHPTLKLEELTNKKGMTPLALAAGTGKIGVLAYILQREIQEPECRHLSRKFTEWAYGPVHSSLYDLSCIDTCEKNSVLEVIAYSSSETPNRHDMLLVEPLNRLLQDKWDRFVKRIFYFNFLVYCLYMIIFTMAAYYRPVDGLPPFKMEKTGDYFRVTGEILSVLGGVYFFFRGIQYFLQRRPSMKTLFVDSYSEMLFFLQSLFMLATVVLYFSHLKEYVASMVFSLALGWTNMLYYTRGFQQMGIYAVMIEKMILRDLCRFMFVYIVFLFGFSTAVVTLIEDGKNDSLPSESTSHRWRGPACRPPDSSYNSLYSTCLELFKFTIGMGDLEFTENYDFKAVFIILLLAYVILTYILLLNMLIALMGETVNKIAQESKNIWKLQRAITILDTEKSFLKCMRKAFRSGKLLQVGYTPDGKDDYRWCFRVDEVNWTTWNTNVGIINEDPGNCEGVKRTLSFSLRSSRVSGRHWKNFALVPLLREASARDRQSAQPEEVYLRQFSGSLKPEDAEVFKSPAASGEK

IC50 (human VR1 [2]) [nM]	inhibition at 5 µM (human VR1 [2]) [%]	Ki (human VR1 [1]) [nM]	inhibition at 1 µM (human VR1 [2]) [%]	SMILES	further results
–	–	–	–	O=C(CCc1ccc(C(F)(F)F)cc1)Nc1ccc(-c2ccncc2)nc1 [Cpd 152]	h Binding % I (1 μM) (human VR1 [1]): 37%; % Response Relative to EC80 of Capsaicin (12 μM) (human VR1 [2]; agonist response, 12 μM): 100%
–	–	–	–	CC(C)(C)c1ccc(CCC(=O)Nc2ccc(-c3ccncc3)c3ccccc23)cc1 [Cpd 153]	h Binding % I (1 μM) (human VR1 [1]): 1%; h % I (5 μM) (human VR1 [2]): 25%
–	–	–	–	O=C(CCc1ccc(C(F)(F)F)cc1)Nc1ccc(-c2ccncc2)c2ccccc12 [Cpd 157]	h Binding % I (1 μM) (human VR1 [1]): 1%; h % I (5 μM) (human VR1 [2]): 12%
27	96	–	–	Cc1cc(NC(=O)CCc2ccc(C(C)(C)C)cc2)cnc1-c1ccccc1O [Cpd 160, 3-(4-tert-butyl-phenyl)-N-[6-(2-hydroxy-phenyl)-5-methyl-pyridin-3-yl]-propionamide]	inhibition at 1 µM (human VR1 [1]): 101%
–	–	48	96	CC(C)(C)c1ccc(CCC(=O)Nc2cc(F)c(-c3ccncc3)c(F)c2)cc1 [Cpd 169]	Emax at 6 µM (human VR1 [2]; agonist response): 45%
–	–	292	60	CC(C)(C)c1ccc(CCC(=O)Nc2ccc(-c3ccncc3)c(CO)c2)cc1 [Cpd 171]	Emax at 6 µM (human VR1 [2]; agonist response): 119%
–	–	142	75	CC(C)(C)c1ccc(CCC(=O)Nc2cc(F)c(-c3ccccn3)c(F)c2)cc1 [Cpd 175]	–
–	22	66	99	CC(C)(C)c1ccc(CCC(=O)Nc2ccc(-c3ccccn3)nc2)cc1 [Cpd 176]	–
266	100	67	81	Cc1cc(NC(=O)CCc2ccc(C(C)(C)C)cc2)ccc1-c1cccnc1 [Cpd 179]	–
–	–	42	91	Cc1cc(NC(=O)CCc2ccc(C(C)(C)C)cc2)ccc1-c1ccncc1 [Cpd 180]	Emax at 6 µM (human VR1 [2]; agonist response): 96%
–	–	55	80	CC(C)(C)c1ccc(CCC(=O)Nc2ccc(-c3ccncc3)c(F)c2)cc1 [Cpd 182]	Emax at 6 µM (human VR1 [2]; agonist response): 97%
–	–	–	–	Cn1ccnc1-c1ccc(NC(=O)CCc2ccc(C(C)(C)C)cc2)cc1 [Cpd 189]	h Binding % I (1 μM) (human VR1 [1]): 4%; h % I (5 μM) (human VR1 [2]): 63%
–	–	–	–	Cn1cnc(-c2ccc(NC(=O)CCc3ccc(C(C)(C)C)cc3)cc2)c1 [Cpd 190]	h Binding % I (1 μM) (human VR1 [1]): 56%; h % I (5 μM) (human VR1 [2]): 98%
0.972	–	–	–	Cn1cncc1-c1ccc(NC(=O)CCc2ccc(C(C)(C)C)cc2)cc1 [Cpd 191]	inhibition at 1 µM (human VR1 [1]): 19%
–	–	–	–	CC(C)(C)c1ccc(CCC(=O)Nc2ccc(C3CN=CO3)cc2)cc1 (stereo not drawn) [Cpd 194]	h Binding % I (1 μM) (human VR1 [1]): 45%; h % I (5 μM) (human VR1 [2]): 94%
–	–	–	–	Cc1nc(-c2ccc(NC(=O)CCc3ccc(C(C)(C)C)cc3)cc2)cs1 [Cpd 195]	h Binding % I (1 μM) (human VR1 [1]): 75%; h % I (5 μM) (human VR1 [2]): 20%
0.283	–	–	–	CC(C)(C)c1ccc(CCC(=O)Nc2ccc(-c3csnn3)cc2)cc1 [Cpd 197]	h Binding % I (1 μM) (human VR1 [1]): 62%
3.82	–	–	–	CC(C)(C)c1ccc(CCC(=O)Nc2ccc(-n3cncn3)cc2)cc1 [Cpd 198]	inhibition at 1 µM (human VR1 [1]): 37%
–	–	–	–	CC(C)(C)c1ccc(CCC(=O)Nc2ccc(-c3nn[nH]n3)cc2)cc1 [Cpd 199]	h Binding % I (1 μM) (human VR1 [1]): 3%; h % I (5 μM) (human VR1 [2]): 19%
–	–	–	–	CC1=NN(c2ccc(NC(=O)CCc3ccc(C(C)(C)C)cc3)cc2)C(=O)C1 [Cpd 201]	h Binding % I (1 μM) (human VR1 [1]): 1%; h % I (5 μM) (human VR1 [2]): 57%
30.1	100	212	–	CC(C)(C)c1ccc(CCC(=O)Nc2cnc(-n3ccnc3)c(C(F)(F)F)c2)cc1 [Cpd 202, 3-(4-tert-Butyl-phenyl)-N-(6-imidazol-1-yl-5-trifluoromethyl-pyridin-3-yl)-propionamide]	–
35.2	100	34	99	Cc1cc(NC(=O)CCc2ccc(C(F)(F)F)cc2)cnc1-n1cnc(Cl)c1Cl [Cpd 203, N-[6-(4,5-Dichloro-imidazol-1-yl)-5-methyl-pyridin-3-yl]-3-(4-trifluoromethyl-phenyl)-propionamide]	–
37	–	31.9	100	Cc1cn(-c2ccc(NC(=O)CCc3ccc(C(F)(F)F)cc3)cc2C(F)(F)F)cn1 [Cpd 204, N-[4-(4-Methyl-imidazol-1-yl)-3-trifluoromethyl-phenyl]-3-(4-trifluoromethyl-phenyl)-propionamide]	–
38	–	44.4	100	Cc1cn(-c2ccc(NC(=O)/C=C/c3ccc(S(=O)(=O)C(F)(F)F)cc3)cc2C(F)(F)F)cn1 [Cpd 205, trans-N-[4-(4-Methyl-imidazol-1-yl)-3-trifluoromethyl-phenyl]-3-(4-trifluoromethanesulfonyl-phenyl)-acrylamide]	–

IC50 (human VR1 [2]) [nM]	inhibition at 5 µM (human VR1 [2]) [%]	Ki (human VR1 [1]) [nM]	inhibition at 1 µM (human VR1 [2]) [%]	SMILES	further results
39.4	100	64.6	–	O=C(CCc1ccc(C(F)(F)F)cc1)Nc1ccc(-c2cccc(O)c2)c(C(F)(F)F)c1 [Cpd 206]	–
40.2	100	47.8	95	O=C(CCc1ccc(C(F)(F)F)cc1)Nc1ccc(-n2ccnc2)c(C(F)(F)F)c1 [Cpd 207]	–
41	–	88.7	100	Cc1cn(-c2ccc(NC(=O)/C=C/c3ccc(SC(F)(F)F)cc3)cc2C(F)(F)F)cn1 [Cpd 208]	–
57	100	54.5	–	O=C(CCc1ccc(C(F)(F)F)cc1)Nc1cnc(-c2cccc(O)c2)c(C(F)(F)F)c1 [Cpd 210, N-[6-(3-Hydroxy-phenyl)-5-trifluoromethyl-pyridin-3-yl]-3-(4-trifluoromethyl-phenyl)-propionamide]	–
60	99	22.2	–	CC(C)(C)c1ccc(CCC(=O)Nc2ccc(-n3cnc(Cl)c3Cl)cc2)cc1 [Cpd 211]	–
62.7	100	5.9	101	CC(C)(C)c1ccc(CCC(=O)Nc2ccc(-n3cnc(Cl)c3Cl)c(C(F)(F)F)c2)cc1 [Cpd 212, 3-(4-tert-Butyl-phenyl)-N-[4-(4,5-dichloro-imidazol-1-yl)-3-trifluoromethyl-phenyl]-propionamide]	–
73.2	91	536	–	Cc1cc(NC(=O)CCc2ccc(C(C)(C)C)cc2)cnc1-n1ccnc1 [Cpd 214]	–
74.3	100	7.4	–	Cc1cc(NC(=O)CCc2ccc(C(C)(C)C)cc2)cnc1-n1cnc(Cl)c1Cl [Cpd 215]	–
76.2	99	70.4	–	CC(=O)Nc1cccc(-c2ncc(NC(=O)CCc3ccc(C(C)(C)C)cc3)cc2C)c1 [Cpd 216]	–
87	–	47.7	101	O=C(/C=C/c1ccc(S(=O)(=O)C(F)(F)F)cc1)Nc1ccc(-n2cnc(Cl)c2Cl)c(C(F)(F)F)c1 [Cpd 217]	–
97.2	101	19.9	–	O=C(CCc1ccc(C(F)(F)F)cc1)Nc1ccc(-n2cnc(Cl)c2Cl)c(C(F)(F)F)c1 [Cpd 218]	–
121	100	99.8	–	O=C(CCc1ccc(C(F)(F)F)cc1)Nc1ccc(-c2ccncc2)c(C(F)(F)F)c1 [Cpd 220]	–
127	100	57.8	–	O=C(CCc1ccc(C(F)(F)F)cc1)Nc1cnc(-c2ccc(O)cc2)c(C(F)(F)F)c1 [Cpd 221]	–
142	–	82.6	–	O=C(CCc1ccc(C(F)(F)F)cc1)Nc1ccc(-c2ccc(CO)cc2)c(C(F)(F)F)c1 [Cpd 223]	h % I (5 μM) (human VR1 [2]): 100%
147	101	18.4	–	CC(C)(C)c1ccc(CCC(=O)Nc2cnc(-n3cnc(Cl)c3Cl)c(C(F)(F)F)c2)cc1 [Cpd 224]	–
152	100	162	–	O=C(CCc1ccc(C(F)(F)F)cc1)Nc1cnc(-c2ccc(CO)cc2)c(C(F)(F)F)c1 [Cpd 225]	–
164	–	761	83	Cc1cn(-c2ncc(NC(=O)CCc3ccc(C(F)(F)F)cc3)cc2C)cn1 [Cpd 226]	–
168	–	90.8	100	O=C(CCc1ccc(C(F)(F)F)cc1)Nc1ccc(-n2cnc(Cl)c2)c(C(F)(F)F)c1 [Cpd 227, N-[4-(4-Chloro-imidazol-1-yl)-3-trifluoromethyl-phenyl]-3-(4-trifluoromethyl-phenyl)-propionamide]	–
171	–	41.6	92	O=C(/C=C/c1ccc(SC(F)(F)F)cc1)Nc1ccc(-n2cnc(Cl)c2Cl)c(C(F)(F)F)c1 [Cpd 228]	–
195	100	99.2	–	O=C(CCc1ccc(C(F)(F)F)cc1)Nc1ccc(-c2ccc(O)cc2)c(C(F)(F)F)c1 [Cpd 229]	–
202	101	1020	–	O=C(CCc1ccc(Cl)cc1)Nc1ccc(-c2ccncc2)c(C(F)(F)F)c1 [Cpd 230]	–
240	–	26.2	90	O=C(CCc1ccc(Cl)cc1)Nc1ccc(-n2cnc(Cl)c2Cl)c(C(F)(F)F)c1 [Cpd 231]	–
249	–	80	99	Cc1cc(NC(=O)CCc2ccc(N(C)C3CCCCC3)cc2)cnc1-n1cnc(Cl)c1Cl [Cpd 232]	–
